Values of other authors, collected in patent US7585520B2, “Compositions containing both sedative and non-sedative antihistamines and sleep aids” (Collegium Pharmaceutical, Inc., priority 2001, dated 2009).

Details: drug or active metabolite

Question: For Oc1ccc(CCN2CCC(Nc3nc4ccccc4n3Cc3ccc(F)cc3)CC2)cc1 [Desmethylastemizole], which Elimination half-life is on record?
Answer: Its Elimination half-life is 290 h.

Question: Which Elimination half-life does the source give for CN(c1nccc(=O)[nH]1)C1CCN(c2nc3ccccc3n2Cc2ccc(F)cc2)CC1 [Mizolazine] here?
Answer: The Elimination half-life was 8 to 13 h.

Question: For Clc1ccc2c(c1)CCc1cccnc1C2=C1CCNCC1 [Descarboethoxyloratidine], which Elimination half-life is on record?
Answer: The Elimination half-life was 17.3 to 24 h.

Question: For CC(C)(C)c1ccc(C(=O)CCCN2CCC(OC(c3ccccc3)c3ccccc3)CC2)cc1 [Ebastine], which Elimination half-life is on record?
Answer: Its Elimination half-life is 13 to 16 h.

Question: For COc1ccc(CCN2CCC(Nc3nc4ccccc4n3Cc3ccc(F)cc3)CC2)cc1 [Astemizole], which Elimination half-life is on record?
Answer: Its Elimination half-life is 20 to 30 h.
